The text below walks through data of paper PMC3604073, “Chemerin Is an Antimicrobial Agent in Human Epidermis” (PLoS ONE, 2013).

One assay concerns E. coli ATCC 25922. The experiment in a line: Radial diffusion assay (RDA). It is filed as cell-based. Particulars: peptides at 100 µM, low salt conditions. How it is done:
The indicated bacteria were grown to mid-logarithmic phase in 10 ml of full-strength (3% w/v) TSB as previously described. The microorganisms were then washed once with 10 mM Tris, pH 7.4. 4×10^6 bacterial CFUs were then added to 15 ml of the underlay agarose gel, consisting of 0.03% (w/v) TSB, 1% (w/v) low electroendosmosis type (EEO) agarose (Sigma) and 0.02% (v/v) Tween 20 (Sigma), with or without 0.15 M NaCl. The underlay was poured into a Ø 144 mm Petri dish. After agarose solidification, 4 mm-diameter wells were punched and 6 µl of chemerin-derived peptides or LL37 (Innovagen AB) was added to each well. Plates were incubated at 37°C for 3 hours to allow diffusion of the peptides. The underlay gel was then covered with 15 ml of molten overlay (6% TSB and 1% Low-EEO agarose in dH2O). Antimicrobial activity of a peptide was visualized as a zone of clearing around each well after 18–24 hours of incubation at 37°C.

The subject of a further assay is E. coli. The note with it: evaluated at 2 µM; cited from earlier work.

For the molecule “DWKKPECKVRPNGRKRKCLA [p5, synthetic chemerin-derived peptide]”, the “inhibition of growth zones in RDA” value with E. coli ATCC 25922 was “inhibited growth zones”.

On to “RKCLACIKLGSEDKVLGRLV [p6, synthetic chemerin-derived peptide]”, for which the “inhibition of growth zones in RDA” value with E. coli ATCC 25922 is recorded as “inhibited growth zones”.

B1: pro-chem163S: chemerin precursor (holoprotein) with the inhibitory C-terminal peptide (protein, UniProt Q99969 21-163, looked up)
pro-form: ELTEAQRRGLQVALEEFHKHPPVQWAFQETSVESAVDTPFPAGIFVRLEFKLQQTSCRKRDWKKPECKVRPNGRKRKCLACIKLGSEDKVLGRLVHCPIETQVLREAEEHQETQCLRVQRAGEDPHSFYFPGQFAFSKALPRS
modifications: pro-form
Consider B1, for which the E. coli survival in the assay with E. coli is 59±13%.
